From PubChem BioAssay (NCI)
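Step 1: Grow cells in 96-well plates. Step 2: Expose to compound for 48 hours at 5 concentrations. Step 3: Interpolate endpoints linearly; if unreached, use highest concentration. The concentration for full growth arrest is given as TGI.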

How the values were obtained:
Test in all cases: DTP human tumour cell line panel, 48 h
[1] = test system: LOX IMVI melanoma
[2] = test system: NCI-H226 lung
[3] = test system: OVCAR-3 ovarian
[4] = test system: OVCAR-5 ovarian
[5] = test system: SNB-19 CNS
[6] = test system: SNB-75 CNS
[7] = test system: UACC-257 melanoma
[8] = test system: UACC-62 melanoma
[9] = test system: BT-549 breast
[10] = test system: DU-145 prostate
[11] = test system: MDA-MB-435
[12] = test system: HS 578T breast

Row | SMILES | TGI [1] [µM] | TGI [2] [µM] | TGI [3] [µM] | TGI [4] [µM] | TGI [5] [µM] | TGI [6] [µM] | TGI [7] [µM] | TGI [8] [µM] | TGI [9] [µM] | TGI [10] [µM] | TGI [11] [µM] | TGI [12] [µM]
1 | COC[n+]1cc2cc(OC)c(OC)cc2c2ccc3cc(OC)c(OC)cc3c21 | > 100 | > 100 | > 100 | > 100 | > 100 | > 100 | > 100 | > 100 |  |  |  | 
2 | Cc1cc(Cl)ccc1N=NC(=O)NNc1ccc(Cl)cc1C | 30.6 | 36.1 | 31 | 30.7 | 48.9 | 33.3 | 33.1 | 24.8 | 32.2 | 23.3 | 39.7 | 
3 | O=C(CCCn1ccnc1[N+](=O)[O-])NCCn1ccnc1 |  | > 100 | > 100 | > 100 | > 100 | > 100 | > 100 | > 100 | > 100 | > 100 | > 100 | > 100
4 | CC1NC(/C(=C/c2ccccc2O)NC(=O)c2ccccc2)OC1=O (centres undefined) | > 50 | > 50 | > 50 | > 50 | > 50 | > 50 | > 50 | > 50 | > 50 |  | > 50 | 
5 | Cc1ccc(S(=O)(=O)NNC(=S)Nc2cccc3ccccc23)cc1 |  | 95.2 |  | > 100 | > 100 | 77.5 | 52.1 | > 100 |  | > 100 | > 100 | > 100
6 | CC1[C@@H](OCc2ccccc2)COC(=O)N1Cc1ccccc1 (some centres undefined) | > 100 | > 100 | > 100 | > 100 | > 100 | > 100 | > 100 | > 100 |  | > 100 | > 100 | > 100
7 | CC1C[C@]2(C)C(=S)Nc3ccccc3[C@@H]2Nc2ccccc21 (some centres undefined) | 28.5 | 36.6 | 32.1 | 43.5 | 57.4 | 61 | 32.5 | 34.4 |  | 17.5 | 31.2 | 85.5
8 | O=c1cc(-c2cccc(OC(F)(F)F)c2)[nH]c2cc3c(cc12)OCO3 |  | 9.16 | 3.92 | > 100 | > 100 | 17.3 | > 100 |  | 33.5 | > 100 | 0.0367 | 4.9
9 | Cc1c2c(n(CCc3ccccc3)c1C)NN=C(C#N)S2(=O)=O | > 100 |  | > 100 | > 100 | > 100 | > 100 | > 100 | > 100 | > 100 | > 100 | > 100 | > 100
10 | CCN(CC)Cc1cc(Nc2c3ccccc3nc3c2[nH]c2ccccc23)ccc1O | 2.57 | 5.06 |  | 3.64 | 5.03 | 3.35 | 4.45 | 3.01 |  |  |  | 
11 | CSc1cc(Cl)c(C)cc1S(=O)(=O)NC(=O)NNc1ccc(F)c(Cl)c1 | > 100 | > 100 | > 100 | > 100 | > 100 | > 100 |  |  |  | > 100 | > 100 | > 100
12 | COC(=O)c1c(C(=O)OC)c2cc(C(=O)c3ccccc3)ccn2c1Cl | > 100 | 64.7 | 63.1 | > 100 | > 100 | 55.4 |  | 88.4 |  |  |  | 
13 | COc1ccc(C2C(Cl)C(=O)N2NC(=O)Cc2ccccc2)cc1 (centres undefined) | > 100 | > 100 | > 100 | > 100 | > 100 | > 100 | > 100 | > 100 |  |  |  | 
14 | CC(=O)Nc1ccc(C2[C@H]3C(=O)N(c4ccc(Cc5ccc(N6C(=O)[C@@H]7ON(c8ccccc8)C(c8ccc(NC(C)=O)cc8)[C@@H]7C6=O)cc5)cc4)C(=O)[C@H]3ON2c2ccccc2)cc1 (some centres undefined) | > 100 | > 100 | > 100 | > 100 | > 100 | > 100 | > 100 | > 100 |  |  |  | 
15 | C=C(C)[C@@H]1CC[C@]2(C(=O)O)CC[C@]3(C)[C@H](CC[C@@H]4[C@@]5(C)CC[C@H](C(=O)/C=C/c6ccc(O)cc6)C(C)(C)[C@@H]5CC[C@]43C)[C@@H]12 | 22.4 |  | 10.3 | 23.7 | 27.7 |  | 16.5 | 30 | 38.5 | 18.1 | 24.4 | 36.2
16 | CC(C)(C)[C@H]1CO[C@]2(C)[C@@H]3C[C@@H]3C(=O)N12 | > 100 | > 100 | > 100 | > 100 | > 100 | > 100 | > 100 | > 100 |  |  |  | 
17 | CC1=NN(C(=O)Cc2ccccc2)C(=O)/C1=C\C=C\c1ccccc1 | > 100 | > 100 | > 100 | > 100 | > 100 | > 100 | > 100 |  |  |  |  | 
18 | CCOP(=O)(OCC)/C(C#N)=C/c1ccco1 | > 100 | > 100 |  | > 100 |  | > 100 | > 100 | > 100 |  |  |  | 
19 | CNC(=O)c1n[nH][nH]c1=O | > 100 | > 100 |  | > 100 | > 100 | > 100 | > 100 | > 100 |  | > 100 | > 100 | > 100
20 | CCCCCc1c2nc(c(CCCCC)c3ccc([nH]3)c(CCCCC)c3ccc([nH]3)c(CCCCC)c3nc1C=C3)C=C2 | > 100 |  | > 100 | > 100 | > 100 | > 100 | > 100 | > 100 | > 100 | > 100 | > 100 | > 100
21 | Cc1cc(C)nc(Nc2nc3ccc([N+](=O)[O-])cc3[nH]2)n1 | > 100 | > 100 | > 100 | > 100 | > 100 |  | > 100 | > 100 |  |  |  | 
22 | NC1CC(=O)c2cc(Br)sc21 (centres undefined) |  |  | > 100 | > 100 | > 100 | > 100 | > 100 | > 100 | > 100 | > 100 | > 100 | 
